{
  "source": "patent EP4790048A1",
  "about": "“S1PR4 REGULATOR COMPOUND FOR AUTOIMMUNE DISEASE TREATMENT AND APPLICATION THEREOF” (Shengyuan Zetong (Shanghai) Pharmaceutical Co., Ltd, priority 2023, dated 2025)",
  "key": {"hS1P4-R-79C": {"biological_target": "T1, hS1P4-R-79C (Homo sapiens, UniProt O95977, R79C)", "T1 construct": "expressed in transfected cells; host or cells: CHO", "T1 sequence (O95977 1-384 R79C)": "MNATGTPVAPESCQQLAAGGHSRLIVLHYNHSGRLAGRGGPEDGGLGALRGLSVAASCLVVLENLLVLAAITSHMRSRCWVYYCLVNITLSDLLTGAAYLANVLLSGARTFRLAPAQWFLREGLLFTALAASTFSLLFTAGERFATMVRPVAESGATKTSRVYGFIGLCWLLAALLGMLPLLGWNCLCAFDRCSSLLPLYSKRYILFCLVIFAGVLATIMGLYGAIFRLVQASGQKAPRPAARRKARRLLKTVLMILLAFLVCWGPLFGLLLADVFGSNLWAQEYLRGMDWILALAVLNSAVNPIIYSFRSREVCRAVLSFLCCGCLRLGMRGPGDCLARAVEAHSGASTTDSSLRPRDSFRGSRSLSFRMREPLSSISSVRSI", "experiment": "Tango β-arrestin recruitment luciferase assay, Tango-hS1P4-R-79C-CHO (S1PR4 mutant)", "format": "cell-based", "conditions": "20 h drug treatment", "description": "(§1) The Tango assay detects ligand-dependent GPCR activity through the interaction between β-arrestin and GPCRs. […] The NTEV fragment and the tetracycline transactivator (tTA), an artificial transcription factor, are fused at the C-terminus of the GPCR, while the CTEV fragment is fused to human β-arrestin 2. To enhance the stability of the interaction between GPCR and β-arrestin, a short sequence from the C-terminus of the human arginine vasopressin receptor 2 (V2 tail) is inserted between the GPCR and NTEV. The V2 tail contains multiple GRK phosphorylation sites, which strengthen β-arrestin binding upon phosphorylation. The CTEV fragment carries the stabile point mutation S219P and is truncated at residue 221 to remove the autoinhibitory C-terminal tail. Meanwhile, β-arrestin 2 is truncated to lack the entire C-terminal tail (residues 383-410 deleted). This truncation confers robust stimulus-dependent receptor desensitization, thereby improving detection sensitivity compared with wild-type β-arrestin 2. The UAS reporter construct consists of upstream activating sequence (UAS) elements, a minimal CMV promoter, and a tTA-dependent luciferase reporter gene. Therefore, constructing Tango cells requires the co-transfection of the above three plasmids into host cells. Upon GPCR activation and β-arrestin recruitment, the TEV enzyme at the β-arrestin terminus cleaves tTA from the GPCR C-terminus. The released tTA initiates tTA-dependent luciferase transcription, and compound activity is ultimately determined by measuring luminescence intensity.\n(§2) • 1) Tango cell line from was digested from the culture dish respectively. After cell counting, the cells were plated at a density of 10,000 cells per well with […] into a white opaque 96-well plate (add 60 µL D'Hanks to the surrounding wells), and incubated overnight (20 h) in a 5% CO2 incubator at 37°C. The cell density will reach approximately 90% the next day. • 2) After 20 h, 30 µL of serially diluted compound solution was added to each well. The control group was supplemented with 30 µL F12K complete medium. Each group had three replicate wells. • 3) Samples were collected after 20 h of drug treatment.\n(§3) (All compounds were tested at a final concentration of 45 µM, with 9 serial dilutions at 5-fold intervals. 1 µM BAF-312 was used as the positive control for S1PR1, and 25 µM BAF-312 was used as the positive control for S1PR4."}, "[1]": {"experiment": "Pharmacokinetic property testing in rats", "format": "in vivo, SD rats", "conditions": "for Tmax: 3 per group", "description": "In the structure-activity relationship discussion, the inventors obtained key compound 22. Based on compound 22, the polar head of the compound was modified as chiral pyrrolidine carboxylic acid, yielding selective S1PR4 agonists 30 and 67. We conducted pharmacokinetic property analyses on compounds 22, 30, and 67, respectively."}, "hS1P1": {"biological_target": "T2, hS1P1 (Homo sapiens, UniProt P21453)", "T2 construct": "expressed in transfected cells; host or cells: CHO", "experiment": "Tango β-arrestin recruitment luciferase assay, Tango-hS1P1-CHO", "format": "cell-based", "description": "as §1, §2, §3"}, "S1PR4": {"biological_target": "T3, S1PR4 (Homo sapiens, UniProt O95977)", "T3 construct": "expressed in transfected cells; host or cells: 293T", "T3 sequence (O95977 1-384)": "T1 sequence (O95977 1-384 R79C) with C79R", "experiment": "S1PR4 internalization and recovery test in S1PR4-293T cells", "format": "cell-based", "conditions": "1 µM, 37 °C, 1.5 hours; detected immediately, 5 hours or 20 hours after treatment", "description": "Therefore, the recovery degree of S1PR4 after internalization caused by Compound 30 was evaluated, and the recovery effect following receptor internalization caused by Compound 30 was assessed in cells with high S1PR4 expression."}, "hS1P4": {"biological_target": "T4, hS1P4 (Homo sapiens, UniProt O95977)", "T4 construct": "expressed in transfected cells; host or cells: CHO", "T4 sequence (O95977 1-384)": "T1 sequence (O95977 1-384 R79C) with C79R", "experiment": "Tango β-arrestin recruitment luciferase assay, Tango-hS1P4-CHO", "format": "cell-based", "conditions": "S1PR4; Tango-S1PR4-CHO-K1 cells; mean ± SD; read-out: EC50", "description": "as §1, §2, §3"}, "S1PR3": {"biological_target": "T5, S1PR3 (Homo sapiens, UniProt Q99500)", "T5 construct": "expressed in transfected cells", "T5 sequence (Q99500 whole entry, species assumed)": "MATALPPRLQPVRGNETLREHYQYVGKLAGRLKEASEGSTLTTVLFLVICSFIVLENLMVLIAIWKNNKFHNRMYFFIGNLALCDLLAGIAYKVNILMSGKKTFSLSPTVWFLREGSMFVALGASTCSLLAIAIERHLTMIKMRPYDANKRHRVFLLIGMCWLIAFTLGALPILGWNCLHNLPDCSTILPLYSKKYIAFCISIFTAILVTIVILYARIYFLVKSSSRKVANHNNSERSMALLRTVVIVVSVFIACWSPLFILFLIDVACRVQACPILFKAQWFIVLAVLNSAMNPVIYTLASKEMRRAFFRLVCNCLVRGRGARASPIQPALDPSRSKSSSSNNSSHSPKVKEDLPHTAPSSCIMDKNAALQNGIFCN", "experiment": "β-arrestin recruitment, PathHunter CHO-K1-S1PR3 cells", "format": "cell-based", "conditions": "mean ± SD, read-out: EC50"}, "[2]": {"conditions": "Sprague-Dawley, rat, in vivo, IV (1 mg/kg), male SD rats"}, "[3]": {"conditions": "Sprague-Dawley, rat, in vivo, PO (10 mg/kg), male SD rats"}, "[4]": {"conditions": "β-arrestin recruitment, 20 h drug treatment, top 45 µM, 9 serial 5-fold dilutions, positive control 1 µM BAF-312, read-out: Tango-hS1P1-CHO EC50"}},
  "note": "Substitutions are numbered along the chain they refer to. Read-outs that look alike come from different tables or passages of the source.",
  "data": [
    {"molecule": "CCc1cc(/C(C)=N/OCc2ccc(-c3ccccc3)c(C)c2)ccc1CN1CC(C(=O)O)C1", "note": "[Compound 22, (E)-1-(2-ethyl-4-(1-((2-methyl-[1,1'-biphenyl]-4-yl)methoxy)imino)ethyl)azetidine-3-carboxylic acid]", "values": [
      {"measurement": "EC50", "setting": "hS1P4-R-79C", "result": 27, "unit": "nM"},
      {"measurement": "CL_obs", "setting": "[1]; IV (1 mg/kg), male SD rats", "result": "34.7 ± 3.17", "unit": "mL/min/kg"},
      {"measurement": "Vss_obs", "setting": "[1]; IV (1 mg/kg), male SD rats", "result": "0.88 ± 0.07", "unit": "L/kg"},
      {"measurement": "CL_obs", "setting": "[1]; PO (10 mg/kg), male SD rats", "result": "148 ± 64.3", "unit": "mL/min/kg"},
      {"measurement": "Vss_obs", "setting": "[1]; PO (10 mg/kg), male SD rats", "result": "27.73 ± 16.85", "unit": "L/kg"},
      {"measurement": "AUC(0-t)", "setting": "[1]; [2]", "result": "476 ± 43.6", "unit": "ng·h/mL"},
      {"measurement": "Cmax", "setting": "[1]; [2]", "result": "995 ± 53.2", "unit": "ng/mL"},
      {"measurement": "half-life", "setting": "[1]; [2]", "result": "25.2 ± 1.8", "unit": "min"},
      {"measurement": "Tmax", "setting": "[1]; [2]", "result": 4.8, "unit": "min"},
      {"measurement": "AUC(0-t)", "setting": "[1]; [3]", "result": "1120 ± 400", "unit": "ng·h/mL"},
      {"measurement": "Cmax", "setting": "[1]; [3]", "result": "544 ± 221", "unit": "ng/mL"},
      {"measurement": "half-life", "setting": "[1]; [3]", "result": "130 ± 57.6", "unit": "min"},
      {"measurement": "Tmax", "setting": "[1]; [3]", "result": "49.8 ± 17.4", "unit": "min"},
      {"measurement": "bioavailability", "setting": "[1]; male, Sprague-Dawley, rat, in vivo, oral, 10 mg/kg", "result": 23.5, "unit": "%"},
      {"measurement": "F (%)", "setting": "[1]; oral bioavailability, PO 10 mg/kg vs IV 1 mg/kg, male SD rats", "result": 23.5, "unit": "%"}
    ]},
    {"molecule": "CCc1cc(/C(C)=N/OCc2ccc(-c3ccccc3)c(C)c2)ccc1CN1CC[C@@H](C(=O)O)C1", "note": "[Compound 29]", "values": [
      {"measurement": "EC50", "setting": "hS1P4-R-79C", "result": 87.2, "unit": "nM"},
      {"measurement": "EC50", "setting": "hS1P1; [4]", "result": 169, "unit": "nM"}
    ]},
    {"molecule": "CCc1cc(/C(C)=N/OCc2ccc(-c3ccccc3)c(C)c2)ccc1CNCCC(=O)O", "note": "[Compound 31]", "values": [
      {"measurement": "EC50", "setting": "hS1P4-R-79C", "result": 73.1, "unit": "nM"},
      {"measurement": "EC50", "setting": "hS1P1; [4]", "result": 128, "unit": "nM"}
    ]},
    {"molecule": "CCc1cc(/C(C)=N/OCc2ccc(C3CCCCC3)c(C(F)(F)F)c2)ccc1CN1CC(C(=O)O)C1", "note": "[BAF312]", "values": [
      {"measurement": "S1PR4 internalization (expression of S1PR4 receptor on the cell surface)", "setting": "S1PR4", "result": "cannot induce S1PR4 internalization"}
    ]},
    {"molecule": "CCCCCCCCCCCCC/C=C/[C@@H](O)[C@@H](N)COP(=O)(O)O", "note": "[Compound S1P, Sphingosine-1-phosphate, reference compound]", "values": [
      {"measurement": "EC50", "setting": "hS1P4", "result": "100 ± 21.9", "unit": "nM"},
      {"measurement": "EC50", "setting": "S1PR3", "result": "20.6 ± 3.37", "unit": "nM"},
      {"measurement": "EC50", "setting": "hS1P1; S1PR1, Tango-S1PR1-CHO-K1 cells, mean ± SD, read-out: EC50", "result": "8.52 ± 1.06", "unit": "nM"},
      {"measurement": "S1PR4 internalization (expression of S1PR4 receptor on the cell surface)", "setting": "S1PR4", "result": "can induce S1PR4 internalization, with receptor expression recovering after 20 hours"}
    ]}
  ]
}
